Results from US9079970B2, “Methods and compositions for specific modulation of MCL-1” (Dana Farber Cancer Institute, Inc., priority 2008, dated 2015).
Entries after “also recorded” stand apart in the source; their conditions may differ. Where a SMILES comes first, the peptide text is derived from it. Bridges are numbered along the chain shown (N, C = ends). [ ]: non-standard residue; d: D form. S5 = C=CCCC[C@](C)(N)C(=O)O

Columns and labels:
Mcl-1 ΔNΔC [1] = molecular target: T1, Mcl-1 ΔNΔC (Homo sapiens, UniProt Q07820); test: MCL-1 Specific Binders | Mcl-1 ΔNΔC
T1 construct: GST (N, cleaved yes); made in house; host or cells: Escherichia coli BL21 (DE3), pGEX-4T
Excerpt: Table printed on a drawing sheet, FIGURE 9 A
Head of the field: MCL-1 Specific Binders | Mcl-1 ΔNΔC
(A) illustrates a table of KD values for MCL-1-specific and pan-anti-apoptotic binding SAHBs.
First copying reader's note: KD values with their ± error in the same cell; each column is one anti-apoptotic target protein.
Where the first naming reader finds the target: head: Mcl-1 ΔNΔC

Mcl-1 ΔNΔC [2] = molecular target: T1, Mcl-1 ΔNΔC; test: Fluorescence polarization direct binding of FITC-SAHBs to MCL-1ΔNΔC; settings: FPA
Experimental: (§1) Binding assays were performed as previously described (Pitter et al., Methods Enzymol 446, 387 (2008). Briefly, FITC-SAHB (50 nM) was added to serial dilutions of FPLC-purified recombinant protein in binding buffer (50 mM Tris, 100 mM NaCl, pH 8.0). For competition assays, serial dilutions of acetylated MCL-1 SAHBs were mixed with FITC-BAK SAHB (25 nM), followed by addition of MCL-1ΔNΔC (100 nM) diluted in binding buffer (50 mM Tris, 100 mM NaCl, pH 8.0). Multiwell plates were incubated in the dark at room temperature until equilibrium was reached and fluorescence polarization (mP units) was measured by microplate reader (SpectraMax, Molecular Devices). For direct binding experiments, dissociation constants (KD) were calculated by nonlinear regression analysis of dose-response curves using Prism software (Graphpad). For competition experiments, Ki values were determined by nonlinear regression analysis of dose-response curves using a one-site competition model.
To measure the binding activity of SAHBs for MCL-1, fluorescence polarization binding assays were performed (FIG. 8). […] Fluorescence polarization was measured on a BMG POLARstar Optima or Spectramax and dissociation constants determined by nonlinear regression analysis using Prism software 4.0 (Graphpad) (FIG. 8). […]

recombinant BCL-XLΔC = recombinant BCL-XLΔC (Homo sapiens, UniProt Q07817); test: Fluorescence polarization direct binding of FITC-SAHBs to BCL-XLΔC; settings: FPA
Experimental: as §1
(§2) Recombinant carboxy-terminal deleted anti-apoptotic proteins were expressed using the pGEX-4T vector, and purified as described for rMCL-1. The purified proteins were incubated with FITC-SAHBs, and binding affinities were analyzed by fluorescence polarization assay as described above. […] Optionally, design and optimization of tailored SAHB compounds for anti-apoptotic targeting also employed computational modeling.

recombinant BFL-1/A1ΔC = test: Fluorescence polarization direct binding of FITC-SAHBs to BFL-1/A1ΔC; settings: FPA
Experimental: as §1
(§3) Compounds that bound MCL-1 with high affinity were analyzed for MCL-1 selectivity by measuring SAHB affinities for recombinant BCL-XLΔC, BCL-WΔC and BFL-1/A1ΔC (FIG. 8B). […] The purified proteins were incubated with FITC-SAHBs, and binding affinities were analyzed by fluorescence polarization assay as described above. […]

recombinant BCL-wΔC = test: Fluorescence polarization direct binding of FITC-SAHBs to BCL-wΔC; settings: FPA
Experimental: as §1, §3

[3] = test system: MCL-1ΔNΔC, BCL-2ΔC, BCL-XLΔC, BCL-wΔC and BFL-1/A1ΔC; test: FPA selectivity across panel of anti-apoptotic proteins; format: binding; settings: FPA against anti-apoptotic panel
Experimental: as §1
as §2, with “Compounds that bound MCL-1 with high affinity were analyzed for MCL-1 selectivity by measuring SAHB affinities for recombinant BCL-XLΔC, BCL-WΔC and BFL-1/A1ΔC (FIG. 8B). Recombinant” for “Recombinant”
After the experiments set forth above, further members of the library of stabilized alpha-helices of BCL-2 domains (SAHBs) modeled after the BH3 domains of BCL-2 family proteins were generated in order to identify potent and selective inhibitors of MCL-1. The native alpha-helical structure of BH3 domains was reinforced by incorporating non-natural amino acids containing olefin tethers at the (i, i+4) positions of the non-interacting face, followed by ruthenium catalyzed olefin metathesis to yield a panel of stapled BH3 domains (FIG. 7). Fluorescence polarization assays (FPA) were performed to measure the binding affinity of fluorescently labeled SAHBs for recombinant human MCL-1ΔNΔC (amino acids 172-320), a deletion construct that contains the BH3-binding pocket and affords enhanced expression, purity, and stability. […] To identify MCL-1-selective SAHBs, we first screened for recombinant BCL-XLΔC binding, which eliminated PUMA, BID, BIM, BOK, BAX, and BAK SAHBs and then for recombinant BFL1/A1ΔC binding, which eliminated NOXA SAHB.

[4] = molecular target: T2, MCL-1/BAK interaction in U937 AML cells (Homo sapiens, UniProt Q07820); test: MCL-1 immunoprecipitation / BAK western in U937 cells; format: cell-based; settings: MCL-1 co-immunoprecipitation
T2 construct: MCL-1 over-expressing cancer cells, such as OPM2 multiple myeloma and U937 AML cells; endogenous in cells; host or cells: U937 AML cells
Experimental: After cellular lysis in 50 mM Tris (pH 7.4), 150 mM NaCl, 1 mM EDTA, 1% CHAPS and complete protease inhibitor pellet, cellular debris was pelleted at 14,000 g for 10 minutes at 4° C. The supernatant was incubated with pre-equilibrated protein A/G sepharose beads. The pre-cleared supernatant was treated with anti-MCL-1 antibody for 1.5 hours at 4° C. with rotation, followed by exposure to the protein A/G sepharose beads for 1 hour. The beads were pelleted and washed with lysis buffer for 10 minutes at 4° C. The washed beads were pelleted, heated to 90° C. for 10 minutes in SDS loading buffer, analyzed by SDS/PAGE, and immunoblotted for the known MCL-1 interactor, BAK. […] The SAHB-induced dissociation of MCL-1/BAK correlated with sensitization of U937 cells to apoptosis induction by a pro-apoptotic stimulus (see below).

U937 AML cells = test: Cell viability by MTT assay, U937; format: cell-based; settings: combined with low-dose BIM SAHB
Excerpt: A cell-based screen was used to evaluate the pro-apoptotic activity of MCL-1-targeting SAHBs in MCL-1-dependent hematologic cancer cell lines, including U937 (histiocytic lymphoma), Pfeiffer (diffuse large B-cell lymphoma), OCI-AML3 (acute myeloid leukemia), K562 (chronic myelogenous leukemia) and OPM-2 (multiple myeloma) cells.

Jurkat cells = test: Live confocal microscopy of cellular uptake and localization; format: cell-based; settings: FITC-SAHB
Experimental: In addition to FACS-based analysis, live confocal microscopy was used to visualize cellular uptake and intracellular localization of MCL-1 targeting SAHBs. For live confocal microscopy, Jurkat cells were incubated with FITC-SAHB and live cell organelle markers (e.g., dextran to label pinosomes, Mitotracker to label mitochondria). At defined time points (e.g., 4, 8, 12, and 24 hours), cells were washed twice with PBS, resuspended in PBS, wet mounted and imaged by confocal microscopy. […] Cell permeability and intracellular targeting can also be optimized through site-directed mutagenesis; for example, converting negatively charged residues to neutral or positively charged residues (e.g. SEQ ID NO: 39) can enhance cellular uptake as was previously reported (Bernal et al JACS, 2007).

Sequence of recombinant BCL-XLΔC (Q07817 1-209, stated change not applied): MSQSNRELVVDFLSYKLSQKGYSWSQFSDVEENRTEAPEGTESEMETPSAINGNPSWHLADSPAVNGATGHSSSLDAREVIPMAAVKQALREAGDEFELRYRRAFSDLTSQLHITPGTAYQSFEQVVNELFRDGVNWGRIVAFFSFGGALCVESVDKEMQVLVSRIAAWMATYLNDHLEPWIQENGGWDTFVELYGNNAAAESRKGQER
T1 sequence (Q07820 172-327, stated change not applied): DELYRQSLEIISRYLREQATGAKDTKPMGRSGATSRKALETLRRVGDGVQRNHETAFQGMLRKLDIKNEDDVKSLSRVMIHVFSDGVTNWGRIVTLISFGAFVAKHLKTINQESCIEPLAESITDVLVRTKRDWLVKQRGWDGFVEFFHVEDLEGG
T2 sequence (Q07820 whole entry): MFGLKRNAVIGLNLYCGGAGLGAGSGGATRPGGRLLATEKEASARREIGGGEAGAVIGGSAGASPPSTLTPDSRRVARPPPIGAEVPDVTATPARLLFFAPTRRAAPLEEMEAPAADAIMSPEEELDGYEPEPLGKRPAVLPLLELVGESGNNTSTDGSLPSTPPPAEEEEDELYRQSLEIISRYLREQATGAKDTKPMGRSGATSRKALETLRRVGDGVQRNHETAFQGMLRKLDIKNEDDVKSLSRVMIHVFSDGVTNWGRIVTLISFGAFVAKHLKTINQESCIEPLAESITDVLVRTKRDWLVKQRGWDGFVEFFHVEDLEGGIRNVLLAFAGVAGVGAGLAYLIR

| Compound | Kd (Mcl-1 ΔNΔC [1]) | MCL-1ΔNΔC binding activity (Mcl-1 ΔNΔC [2]) | BCL-XL binding (recombinant BCL-XLΔC) | BFL-1/A1 binding (recombinant BFL-1/A1ΔC) | BCL-w binding (recombinant BCL-wΔC) | binding selectivity among anti-apoptotic proteins [3] | dissociation of MCL-1/BAK interaction in U937 cells [4] | sensitization of U937 cells to BIM SAHB (U937 AML cells) | cellular uptake and intracellular localization (Jurkat cells) |
| --- | --- | --- | --- | --- | --- | --- | --- | --- | --- |
| LEVESXTQLXRFGDKLNFRQKL [NOXA SAHBB] | 109 ± 32 nM |  |  |  |  |  |  |  |  |
| CC(C)C[C@H](NC(=O)[C@H](C)NC(=O)[C@@H](N)CCCCN)C(=O)N[C@@H](CCC(=O)O)C(=O)N[C@H](C(=O)N[C@@H](CC(C)C)C(=O)N[C@@H](CCCNC(=N)N)C(=O)N[C@@]1(C)CCCC=CCCC[C@@](C)(C(=O)N[C@@H](Cc2ccccc2)C(=O)N[C@@H](CCC(N)=O)C(=O)N[C@@H](CCCNC(=N)N)C(=O)N[C@@H](CC(N)=O)C(=O)N[C@@H](Cc2c[nH]cn2)C(=O)N[C@@H](CCC(=O)O)C(=O)N[C@H](C(=O)N[C@@H](C)C(=O)N[C@@H](Cc2ccccc2)C(N)=O)[C@@H](C)O)NC(=O)[C@H](CC(=O)O)NC(=O)CNC(=O)[C@H](C(C)C)NC1=O)[C@@H](C)O [MCL-1 SAHBA V220F] |  | binds to both MCL-1 and BCL-XL | binds to both MCL-1 and BCL-XL |  |  |  |  |  |  |
| CC(C)C[C@H](NC(=O)[C@H](CCCCN)NC(=O)[C@H](CCC(N)=O)NC(=O)[C@H](CCCNC(=N)N)NC(=O)[C@H](Cc1ccccc1)NC(=O)[C@H](CC(N)=O)NC(=O)[C@H](CC(C)C)NC(=O)[C@]1(C)CCCC=CCCC[C@](C)(NC(=O)[C@H](CCCNC(=N)N)NC(=O)[C@H](CC(C)C)NC(=O)[C@H](CCC(N)=O)NC(=O)[C@@H](NC(=O)[C@H](C)NC(=O)[C@H](CO)NC(=O)[C@H](CCC(=O)O)NC(=O)[C@@H](NC(=O)[C@H](CCC(=O)O)NC(=O)[C@@H](N)CC(C)C)C(C)C)[C@@H](C)O)C(=O)N[C@@H](Cc2ccccc2)C(=O)NCC(=O)N[C@@H](CC(=O)O)C(=O)N1)C(N)=O [NOXA SAHB] (H-LEVESATQLR[S5]FGD[S5]LNFRQKL-NH2; staple 11-15; C-terminus assumed) |  |  | did not engage | eliminated; also recorded: did not engage | did not engage | striking selectivity for MCL-1ΔNΔC; also recorded: selective for MCL-1 | disrupts the MCL-1/BAK interaction | dose-responsively sensitizes chemoresistant U937 AML cells to low-dose, pro-apoptotic BIM SAHB | striking fluorescence of pinosomes at early time points and subsequent colocalization with Mitotracker |
